Reference: publication PMC4664966, “Discovery and characterization of novel inhibitors of the sodium-coupled citrate transporter (NaCT or SLC13A5)” (Scientific Reports, 2015)

How the values were obtained:
[1] = Intra-/extracellular unbound concentration ratio (Kpuu) in HEKNaCT cells; format: in vitro ADME; conditions: human, ratio of free intracellular and media concentration after 1 h incubation at 1 μM, geometric mean of 3 replicates ± SD
Procedure: kpuu values were determined by measuring total cell and media concentrations corrected for their respective fraction unbound. Detailed methods to determine intra- and extracellular concentrations of compound in the HEKNaCT cells and human hepatocytes will be the subject of a separate manuscript that is under preparation. […]
Intra- and extracellular concentrations of compound in cellular assays. kpuu values were determined by measuring total cell and media concentrations corrected for their respective […]
fraction unbound. […]
The solution was heated to reflux until the total volume was reduced to ~25 mL.
Hexane (25 mL) was added and the mixture was brought back to reflux than allowed to slowly cool to room temperature. After standing at room temperature for 16 h, the resulting suspension was filtered and dried under high vacuum to yield (S)-2-(4-(tert-butyl)phenethyl)-2-hydroxysuccinic acid (3) as a white solid. The filtrate was allowed to stand at room temperature for 4 days. The solvent evaporated to ~15 mL and large, colorless crystals formed.
X-ray analysis. Data collection was performed on a Bruker APEX diffractometer at room temperature. Data collection consisted of 3 omega scans and low angle and three at high angle; each with 0.5 step. In addition, 2 phi scans were collected to improve the quality of the […]

HepG2 cells = experiment: Cellular toxicity in HepG2 cells; format: cell-based; conditions: concentrations up to 300 μM and 72 hours incubation
HEK-293 parental cells = experiment: Intracellular concentration of compound in HEK-293 parental cells; format: in vitro ADME, human; conditions: 1 hour incubation; data not shown
human hepatocytes = experiment: Incorporation of [14C]-citrate into triglycerides by human hepatocytes; format: cell-based; conditions: radiolabeled citrate for 24 hours
Procedure: Incorporation of [^14C]-citrate into triglycerides by human hepatocytes was measured using the same procedure as above except cells were incubated with the radioactive citrate for 24 hours. Subsequently, the media was aspirated and 100 μL of isopropyl alcohol:THF (9:1) was added. The plate was shaken for 15 minutes, centrifuged at 3000 revolutions per minute for 5 minutes, and 50 μL of supernatant from each well was applied per TLC lane (Whatman LK6D Silica Gel Plates). Radiolabeled lipids were resolved using a 2-solvent system: Solvent 1 contained a 100:100:100:40:36 mixture of ethyl acetate:isopropyl alcohol:CHCl3:MeOH:0.25% KCl and Solvent 2 a 70:27:3 hexane:diethyl ether:acetic acid mixture. The TLC plate was dried under nitrogen for 30 minutes and [^14C]-standards added to a vacant lane. Bands were visualized and quantitated using a Molecular Dynamics’ Storm 860 PhosphorImager system following 18–36 hours exposure to a Phosphorimager screen.

[2] = biological target: Abelson murine leukemia viral oncogene homolog 1 (ABL1) (Homo sapiens, UniProt P00519); experiment: Selectivity data (Table S1); format: biochemical
[3] = biological target: Angiotensin-converting enzyme 1 (ACE1) (Homo sapiens, UniProt P12821); experiment: Selectivity data (Table S1); format: biochemical
[4] = biological target: Cytochrome P450 1A2 (CYP1A2) (Homo sapiens, UniProt P05177); experiment: Selectivity data (Table S1); format: in vitro ADME
CYP2C9 = CYP2C9 (Homo sapiens, UniProt P11712); experiment: Selectivity data (Table S1); format: in vitro ADME; conditions: 3 µM
[5] = biological target: Cytochrome P450 2C9 (CYP2C9) (Homo sapiens, UniProt P11712); experiment: Selectivity data (Table S1); format: in vitro ADME
Calcium channel, L-type = experiment: Selectivity data (Table S1)
[6] = biological target: Choline transporter (CHT1) (SLC5A7) (Homo sapiens, UniProt Q9GZV3); experiment: Selectivity data (Table S1)
Sequence of Choline transporter (CHT1) (SLC5A7) (Q9GZV3 whole entry): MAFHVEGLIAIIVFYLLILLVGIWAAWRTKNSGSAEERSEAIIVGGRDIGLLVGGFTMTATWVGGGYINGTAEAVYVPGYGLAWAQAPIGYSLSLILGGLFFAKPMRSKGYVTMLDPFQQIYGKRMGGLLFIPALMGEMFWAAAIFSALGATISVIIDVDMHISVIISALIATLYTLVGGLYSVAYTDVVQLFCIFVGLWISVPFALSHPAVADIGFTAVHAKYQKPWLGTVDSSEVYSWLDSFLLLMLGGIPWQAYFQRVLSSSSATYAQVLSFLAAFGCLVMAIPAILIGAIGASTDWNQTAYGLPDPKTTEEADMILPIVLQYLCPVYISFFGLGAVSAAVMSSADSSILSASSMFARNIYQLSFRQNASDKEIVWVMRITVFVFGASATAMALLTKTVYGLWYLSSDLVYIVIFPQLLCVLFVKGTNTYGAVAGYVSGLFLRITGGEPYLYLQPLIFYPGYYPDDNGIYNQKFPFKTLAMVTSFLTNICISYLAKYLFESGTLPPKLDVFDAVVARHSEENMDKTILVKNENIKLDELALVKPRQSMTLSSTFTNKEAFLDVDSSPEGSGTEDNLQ

[7] = biological target: Human ether-a-go-go (hERG) (Homo sapiens, UniProt Q12809); experiment: Selectivity data (Table S1)
Sequence of Human ether-a-go-go (hERG) (Q12809 whole entry): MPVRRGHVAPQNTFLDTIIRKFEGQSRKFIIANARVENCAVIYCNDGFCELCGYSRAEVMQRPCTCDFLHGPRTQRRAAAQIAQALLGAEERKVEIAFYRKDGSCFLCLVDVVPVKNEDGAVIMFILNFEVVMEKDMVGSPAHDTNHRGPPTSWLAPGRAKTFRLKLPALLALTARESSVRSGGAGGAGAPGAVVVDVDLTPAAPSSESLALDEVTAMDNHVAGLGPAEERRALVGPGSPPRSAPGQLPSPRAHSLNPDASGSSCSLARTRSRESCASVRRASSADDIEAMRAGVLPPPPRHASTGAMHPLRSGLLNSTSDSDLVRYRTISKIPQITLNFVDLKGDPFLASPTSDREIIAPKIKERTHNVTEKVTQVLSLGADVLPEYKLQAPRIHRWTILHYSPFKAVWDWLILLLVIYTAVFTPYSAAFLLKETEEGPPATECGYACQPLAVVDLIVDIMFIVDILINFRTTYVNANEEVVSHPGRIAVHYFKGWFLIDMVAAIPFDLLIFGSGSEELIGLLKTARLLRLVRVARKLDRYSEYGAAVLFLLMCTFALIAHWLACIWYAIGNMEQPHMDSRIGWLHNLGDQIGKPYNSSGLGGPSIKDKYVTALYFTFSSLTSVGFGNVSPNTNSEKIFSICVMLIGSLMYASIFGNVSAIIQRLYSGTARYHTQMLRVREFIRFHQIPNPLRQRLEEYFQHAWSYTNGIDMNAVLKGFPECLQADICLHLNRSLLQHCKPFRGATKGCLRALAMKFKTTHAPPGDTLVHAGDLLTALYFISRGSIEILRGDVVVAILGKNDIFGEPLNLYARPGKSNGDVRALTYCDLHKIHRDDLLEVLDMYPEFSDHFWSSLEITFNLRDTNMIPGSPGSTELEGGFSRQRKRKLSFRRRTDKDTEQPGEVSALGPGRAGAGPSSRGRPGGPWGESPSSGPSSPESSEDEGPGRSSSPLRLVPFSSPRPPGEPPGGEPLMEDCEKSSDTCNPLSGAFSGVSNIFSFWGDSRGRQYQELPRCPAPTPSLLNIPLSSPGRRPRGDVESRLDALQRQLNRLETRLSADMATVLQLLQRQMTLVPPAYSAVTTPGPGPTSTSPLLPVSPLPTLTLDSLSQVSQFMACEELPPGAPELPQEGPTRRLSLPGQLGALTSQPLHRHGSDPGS

[8] = biological target: Serotonin transporter, sodium-dependent (5-HTT) (Homo sapiens, UniProt P31645); experiment: Selectivity data (Table S1)
[9] = biological target: Adenosine receptor A1 (ADORA1) (Homo sapiens, UniProt P30542); experiment: Selectivity data (Table S1); format: binding
[10] = biological target: Adrenergic receptor, alpha-1A (ADRA1A) (Homo sapiens, UniProt P35348); experiment: Selectivity data (Table S1); format: binding
[11] = biological target: Adrenergic receptor, beta-1 (ADRB1) (Homo sapiens, UniProt P08588); experiment: Selectivity data (Table S1); format: binding
Androgen receptor = Androgen receptor (Homo sapiens, UniProt P10275); experiment: Selectivity data (Table S1); format: binding
Sequence of Androgen receptor (P10275 whole entry): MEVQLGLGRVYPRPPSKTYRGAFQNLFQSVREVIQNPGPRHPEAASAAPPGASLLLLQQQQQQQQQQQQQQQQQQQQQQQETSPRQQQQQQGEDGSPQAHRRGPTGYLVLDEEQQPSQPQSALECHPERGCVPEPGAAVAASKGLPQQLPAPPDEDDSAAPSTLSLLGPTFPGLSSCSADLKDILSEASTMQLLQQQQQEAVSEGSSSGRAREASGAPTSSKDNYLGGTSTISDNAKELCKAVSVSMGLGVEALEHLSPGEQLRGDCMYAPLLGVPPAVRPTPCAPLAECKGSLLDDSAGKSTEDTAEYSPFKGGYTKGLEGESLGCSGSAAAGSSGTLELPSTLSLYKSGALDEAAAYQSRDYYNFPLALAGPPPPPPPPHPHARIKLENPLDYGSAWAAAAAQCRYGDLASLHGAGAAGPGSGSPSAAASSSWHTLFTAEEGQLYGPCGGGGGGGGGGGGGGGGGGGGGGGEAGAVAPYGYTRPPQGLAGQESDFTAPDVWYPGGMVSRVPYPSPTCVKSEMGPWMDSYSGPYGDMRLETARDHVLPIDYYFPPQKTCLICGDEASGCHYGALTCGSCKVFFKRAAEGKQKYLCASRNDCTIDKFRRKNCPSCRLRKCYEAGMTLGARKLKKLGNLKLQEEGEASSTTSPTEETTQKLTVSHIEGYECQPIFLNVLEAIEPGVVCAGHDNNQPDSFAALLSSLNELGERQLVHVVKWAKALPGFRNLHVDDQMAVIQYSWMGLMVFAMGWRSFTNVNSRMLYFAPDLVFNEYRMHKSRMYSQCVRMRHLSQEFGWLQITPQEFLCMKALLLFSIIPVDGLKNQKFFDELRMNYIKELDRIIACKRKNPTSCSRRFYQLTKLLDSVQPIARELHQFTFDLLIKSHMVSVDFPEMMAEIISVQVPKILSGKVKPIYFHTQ

[12] = biological target: Arginine vasopressin receptor 1A (AVPR1A) (Homo sapiens, UniProt P37288); experiment: Selectivity data (Table S1); format: binding
[13] = biological target: Epidermal growth factor receptor (EGFR) (Homo sapiens, UniProt P00533); experiment: Selectivity data (Table S1); format: binding
[14] = biological target: Glucocorticoid receptor (GR) (Homo sapiens, UniProt P04150); experiment: Selectivity data (Table S1); format: binding
Histamine receptor (H3) = Histamine receptor (H3) (Homo sapiens, UniProt Q9Y5N1); experiment: Selectivity data (Table S1); format: binding
[15] = biological target: Nicotinic acetylcholine receptor complex (alpha-4 / beta-2) (Homo sapiens, UniProt P17787+P43681); experiment: Selectivity data (Table S1); format: binding
[16] = biological target: Peroxisome proliferator activated receptor gamma (PPAR-gamma) (Homo sapiens, UniProt P37231); experiment: Selectivity data (Table S1); format: binding
[17] = biological target: Serotonin receptor 1B (5-HT1B) (Homo sapiens, UniProt P28222); experiment: Selectivity data (Table S1); format: binding
Sequence of Serotonin receptor 1B (5-HT1B) (P28222 whole entry): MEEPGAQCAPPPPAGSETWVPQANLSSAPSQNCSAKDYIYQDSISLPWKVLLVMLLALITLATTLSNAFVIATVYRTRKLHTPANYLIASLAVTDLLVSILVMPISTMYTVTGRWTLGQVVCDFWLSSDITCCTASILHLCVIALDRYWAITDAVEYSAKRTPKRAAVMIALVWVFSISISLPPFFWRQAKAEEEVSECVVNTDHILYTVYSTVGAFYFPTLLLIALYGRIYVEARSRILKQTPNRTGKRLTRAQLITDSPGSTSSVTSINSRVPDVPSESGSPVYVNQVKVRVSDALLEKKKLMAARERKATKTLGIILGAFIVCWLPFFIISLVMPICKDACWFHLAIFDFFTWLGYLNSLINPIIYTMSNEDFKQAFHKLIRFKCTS

[18] = biological target: Serotonin receptor 2B (5-HT2B) (Homo sapiens, UniProt P41595); experiment: Selectivity data (Table S1); format: binding
Sequence of Serotonin receptor 2B (5-HT2B) (P41595 whole entry): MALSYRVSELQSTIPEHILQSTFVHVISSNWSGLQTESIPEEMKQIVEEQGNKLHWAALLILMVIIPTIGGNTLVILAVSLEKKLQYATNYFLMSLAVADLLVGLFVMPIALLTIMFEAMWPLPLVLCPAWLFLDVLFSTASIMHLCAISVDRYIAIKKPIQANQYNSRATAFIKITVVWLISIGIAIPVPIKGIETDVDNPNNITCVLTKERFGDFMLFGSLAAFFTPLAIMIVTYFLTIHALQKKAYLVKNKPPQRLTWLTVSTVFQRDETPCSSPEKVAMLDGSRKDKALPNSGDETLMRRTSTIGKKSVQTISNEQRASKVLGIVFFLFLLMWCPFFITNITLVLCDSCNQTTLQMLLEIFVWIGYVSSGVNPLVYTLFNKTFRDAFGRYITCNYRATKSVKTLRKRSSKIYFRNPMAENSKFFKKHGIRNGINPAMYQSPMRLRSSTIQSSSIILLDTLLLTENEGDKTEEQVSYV

[19] = biological target: Serotonin receptor 4e (5-HT4e) (Homo sapiens, UniProt Q13639); experiment: Selectivity data (Table S1); format: binding
[20] = biological target: Vascular endothelial growth factor receptor 2 (VEGFR-2) (Homo sapiens, UniProt P35968); experiment: Selectivity data (Table S1); format: binding
Sequence of Vascular endothelial growth factor receptor 2 (VEGFR-2) (P35968 20-1356): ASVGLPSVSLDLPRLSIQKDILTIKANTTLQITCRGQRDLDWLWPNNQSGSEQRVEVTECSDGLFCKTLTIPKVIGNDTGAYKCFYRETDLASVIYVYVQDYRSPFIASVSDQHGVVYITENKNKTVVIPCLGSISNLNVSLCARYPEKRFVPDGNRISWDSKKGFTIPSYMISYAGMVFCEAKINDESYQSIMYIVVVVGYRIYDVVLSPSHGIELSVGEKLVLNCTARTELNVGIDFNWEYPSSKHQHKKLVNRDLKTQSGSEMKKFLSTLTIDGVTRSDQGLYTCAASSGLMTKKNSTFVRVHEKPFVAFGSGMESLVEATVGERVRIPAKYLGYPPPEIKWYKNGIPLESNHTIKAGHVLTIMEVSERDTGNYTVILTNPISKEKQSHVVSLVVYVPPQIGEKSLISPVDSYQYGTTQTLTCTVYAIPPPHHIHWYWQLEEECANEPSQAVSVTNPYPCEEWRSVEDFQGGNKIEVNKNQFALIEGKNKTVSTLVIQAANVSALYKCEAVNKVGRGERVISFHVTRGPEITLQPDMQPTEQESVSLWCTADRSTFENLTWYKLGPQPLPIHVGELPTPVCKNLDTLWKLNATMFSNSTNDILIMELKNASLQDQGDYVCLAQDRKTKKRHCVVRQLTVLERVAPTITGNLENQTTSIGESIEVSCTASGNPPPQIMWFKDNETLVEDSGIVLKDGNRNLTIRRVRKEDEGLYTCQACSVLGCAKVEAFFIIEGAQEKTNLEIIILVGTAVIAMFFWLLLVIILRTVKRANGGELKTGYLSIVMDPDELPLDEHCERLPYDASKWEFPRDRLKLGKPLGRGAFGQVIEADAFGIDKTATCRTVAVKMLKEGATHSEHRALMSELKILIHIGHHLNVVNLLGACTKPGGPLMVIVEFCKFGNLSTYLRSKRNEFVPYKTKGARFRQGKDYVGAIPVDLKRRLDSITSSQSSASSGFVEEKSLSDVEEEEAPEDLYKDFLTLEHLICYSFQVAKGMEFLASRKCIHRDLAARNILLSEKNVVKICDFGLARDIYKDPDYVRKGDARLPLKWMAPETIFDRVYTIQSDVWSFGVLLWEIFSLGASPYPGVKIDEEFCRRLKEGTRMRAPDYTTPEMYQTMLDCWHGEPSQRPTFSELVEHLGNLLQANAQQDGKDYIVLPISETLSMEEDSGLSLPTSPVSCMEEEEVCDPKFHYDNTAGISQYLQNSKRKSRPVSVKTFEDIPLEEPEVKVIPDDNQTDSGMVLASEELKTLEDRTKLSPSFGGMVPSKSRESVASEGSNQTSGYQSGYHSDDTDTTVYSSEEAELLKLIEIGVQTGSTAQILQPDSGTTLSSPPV

mice fed a HFD = experiment: Chronic treatment of mice fed a HFD (OGTT, hepatic lipids)
Procedure: In studies requiring chronic treatment with compound, mice were purchased at 18 weeks of age following 13 weeks of HFD administration (D12459i; 60% of the calories from fat). Mice were maintained on HFD for the duration of the study in a 12:12-h light/dark cycle. […] To perform an oral glucose tolerance test (day 20 of dosing), mice were fasted at 6:00 AM to 12:00 PM and administered P.O. 1.5 g/kg at 12:00 PM. Glucose concentrations were determined using an AlphaTrak (Abbott Laboratories) at 0, 15, 30, 60, and 90 minutes. […] Hepatic lipids were measured by LC-MS/MS as previously described[42].

[21] = HFD mice, 250 mg/kg BID for 21 days

SMILES: CC(C)(C)c1ccc(CC[C@@](O)(CC(=O)O)C(=O)O)cc1 [Compound 2]
- Kp uu at 1 h, 1 µM [1]: 29 ± 5
- cellular toxicity (HepG2 cells): no observable toxicity
- intracellular level in HEK-293 parental cells (HEK-293 parental cells): not detected at significant levels
- label incorporation in TAG (human hepatocytes): decreased dose-dependently
- inhibition at 100 µM [2]: < 10%
- inhibition at 100 µM [3]: < 10%
- interaction/inhibition of CYP1A2 [4]: no significant interaction/inhibition
- inhibition at 3 µM (CYP2C9): < 10%
- interaction/inhibition of CYP2C9 [5]: no significant interaction/inhibition
- IC50 (Calcium channel, L-type): > 30 µM
- inhibition at 100 µM [6]: < 10%
- IC50 [7]: > 100 µM
- interaction/inhibition of the hERG channel [7]: no significant interaction/inhibition
- inhibition at 100 µM [8]: < 10%
- inhibition at 100 µM [9]: < 10%
- inhibition at 100 µM [10]: < 10%
- inhibition at 100 µM [11]: < 10%
- inhibition at 100 µM (Androgen receptor): < 10%
- inhibition at 100 µM [12]: < 10%
- inhibition at 100 µM [13]: < 10%
- inhibition at 100 µM [14]: < 10%
- inhibition at 100 µM (Histamine receptor (H3)): < 10%
- inhibition at 100 µM [15]: < 10%
- inhibition at 100 µM [16]: < 10%
- inhibition at 100 µM [17]: < 10%
- inhibition at 100 µM [18]: < 10%
- inhibition at 100 µM [19]: < 10%
- inhibition at 100 µM [20]: < 10%
- plasma insulin concentrations area under the curve during OGTT (mice fed a HFD; HFD mice, 250 mg/kg BID): no differences
- hepatic TAG and DAG (mice fed a HFD; [21]): trend for lower
- hepatic acylcarnitine (mice fed a HFD; [21]): higher levels
- β-hydroxybutyrate concentrations (mice fed a HFD; [21]): 0.49 ± 0.06 mmol/L
- glucose intolerance during OGTT (mice fed a HFD; HFD mice, 250 mg/kg BID, day 20): completely reversed
- phenotype analogous to epileptic encephalopathy (mice fed a HFD; during the in vivo experiments): no phenotype analogous to epileptic encephalopathy was observed
